Active and inactive are the calls of the source. No cut-off for these calls is given here.
What was measured:
A549 [1] = test: Cytotoxicity against human A549 cells after 24 hrs by propidium iodide assay; type: functional, cell-based; settings: A549, 24 h
A549 [2] = test: Induction of early stage apoptosis in human A549 cells assessed as mitotracker dye uptake; type: functional, cell-based
A549 [3] = test: Cytotoxicity against human A549 cells after 24 hrs by YO-PRO-1 assay; type: functional, cell-based; settings: A549, 24 h
A549 [4] = test: Cytotoxicity against human A549 cells at 100 uM; type: functional
A549 [5] = test: Induction of early stage apoptosis in human A549 cells assessed as mitotracker dye uptake at 30 uM after 24 hrs; type: functional, cell-based

SMILES | IC50 (A549 [1]) | IC50 (A549 [3]) | inhibition at 100 µM (A549 [4]) | further results
COc1cc(C[C@@H](C)[C@H](C)Cc2ccc(O)c(OC)c2)ccc1O [(-)-DIHYDROGUAIARETICACID] | 7.49 µM | 7.49 µM | – | IC50 (A549 [2]): 31.2 µM
COc1ccc([C@@H]2[C@@H](C)[C@@H](C)[C@@H]2c2ccc(OC)c(OC)c2)cc1OC [CINBALANSAN] | – | – | 34% | Activity (A549 [5]): Active
COc1cc2c(c(OC)c1OC)-c1ccc(OC)c(=O)cc1[C@@H](NC(C)=O)CC2 [COLCHICINE] | 10.8 ng/mL | 0.0108 µg/mL | – | –
COc1cc([C@@H]2[C@@H](C)[C@H](C)[C@H]2c2ccc(O)c(OC)c2)ccc1O [ENDIANDRIN A] | – | – | 76% | –
COc1cc([C@@H]2[C@@H](C)[C@@H](C)[C@@H]2c2ccc(O)c(OC)c2)ccc1O [ENDIANDRIN B] | – | – | 75% | –
CC(=O)O[C@H]1C(=O)[C@@]2(C)[C@H]([C@H](OC(=O)c3ccccc3)[C@]3(O)C[C@H](OC(=O)[C@H](O)[C@@H](NC(=O)c4ccccc4)c4ccccc4)C(C)=C1C3(C)C)[C@]1(OC(C)=O)CO[C@@H]1C[C@@H]2O [PACLITAXEL] | – | 0.0196 µg/mL | – | –
COC[C@H]1OC(=O)c2coc3c2[C@@]1(C)C1=C(C3=O)[C@@H]2CCC(=O)[C@@]2(C)C[C@H]1OC(C)=O [WORTMANNIN] | 4.28 ng/mL | 0.00428 µg/mL | – | –
